Calls of active or inactive are those of the source. The rule behind the calls is not given here.
System: GENE-TOX genotoxicity assays, various organisms and cells
Assay: GENE-TOX mutagenicity studies
Conditions: for call: Assay Type: In vivo carcinogenicity studies, Assay Code: CCG+
[1] = Species/Cell Type: Drosophila melanogaster, Assay Type: Sex-linked recessive lethal gene mutation, Assay Code: SRL+, Evaluation Type: Evaluation A (Pre-1980)
[2] = Species/Cell Type: Nonhuman, Assay Type: Chromosome aberrations in vitro, Assay Code: CY&+, Evaluation Type: Evaluation A (Pre-1980)
[3] = Species/Cell Type: Nonhuman, Evaluation Type: Evaluation A (Pre-1980)
[4] = Species/Cell Type: Saccharomyces cerevisiae, Assay Type: Reverse gene mutation, Assay Code: YER+, Evaluation Type: Evaluation A (Pre-1980)
[5] = Species/Cell Type: Salmonella typhimurium (one or more of the five standard strains: TA98, TA100, TA1535, TA1537, and TA1538), Assay Type: Histidine reverse gene mutation, Ames assay, Assay Code: SALT, Evaluation Type: Evaluation A (Pre-1980)
[6] = Species/Cell Type: Mammalian polychromatic erythrocytes, Assay Type: Micronucleus test, chromosome aberrations, Assay Code: MNT+, Evaluation Type: Evaluation B (Post-1980)
[7] = Species/Cell Type: Vicia faba, Assay Type: Chromosome aberrations, Assay Code: VIC+, Evaluation Type: Evaluation A (Pre-1980)
[8] = Species/Cell Type: Saccharomyces cerevisiae, Assay Type: Reverse gene mutation, Assay Code: YERT, Evaluation Type: Evaluation A (Pre-1980)
[9] = Species/Cell Type: Bacillus subtilis (H17 vs M45), Assay Type: Rec-assay, spot test, DNA effects (bacterial DNA repair), Assay Code: REWT, Evaluation Type: Evaluation A (Pre-1980)

## COS(=O)(=O)OC
Species/Cell Type: Arabidopsis species, Assay Type: Gene mutation, Assay Code: ARM+, Evaluation Type: Evaluation A (Pre-1980)
  mutagenic call: active; positive
Species/Cell Type: Aspergillus nidulans, Assay Type: Forward gene mutation, Assay Code: ASF+, Evaluation Type: Evaluation A (Pre-1980)
  mutagenic call: active; positive
Species/Cell Type: Chinese hamster ovary (CHO) cells, Assay Type: Forward gene mutation at the HPRT locus, Assay Code: CHO+D, Dose Response: With dose response, Evaluation Type: Evaluation A (Pre-1980)
  mutagenic call: active; positive
Species/Cell Type: Drosophila melanogaster, Assay Type: Aneuploidy, partial sex chromosome loss, chromosome aberrations, Assay Code: DAP-M, Evaluation Type: Evaluation A (Pre-1980)
  mutagenic call: inactive; negative
Species/Cell Type: Drosophila melanogaster, Assay Type: Aneuploidy, whole sex chromosome loss, chromosome aberrations, Assay Code: DAC+M, Evaluation Type: Evaluation A (Pre-1980)
  mutagenic call: active; positive
[1]
  mutagenic call: active; positive
Species/Cell Type: Drosophila melanogaster, Sex: Male, Assay Type: Heritable translocation test, chromosome aberrations, Assay Code: DHT+, Evaluation Type: Evaluation A (Pre-1980)
  mutagenic call: active; positive
Species/Cell Type: Escherichia coli polA (W3119 vs P3478), Assay Type: Rec-assay, DNA effects (bacterial DNA repair), Assay Code: RE1+, Evaluation Type: Evaluation A (Pre-1980)
  mutagenic call: active; positive
Species/Cell Type: Human, Assay Type: Sister-chromatid exchange (SCE) in vitro, Assay Code: SC1+D, Dose Response: With dose response, Evaluation Type: Evaluation A (Pre-1980)
  mutagenic call: active; positive
[2]
  mutagenic call: active; positive
[3]
  call: active; positive
Species/Cell Type: Nonhuman, Assay Type: Sister-chromatid exchange (SCE) in vitro, Assay Code: SC2+, Evaluation Type: Evaluation A (Pre-1980)
  mutagenic call: active; positive
[4]
  mutagenic call: active; positive
[5]
  mutagenic call: no conclusion
Species/Cell Type: Salmonella typhimurium, Assay Type: Forward and reverse gene mutation, host-mediated assay, Assay Code: HMA+, Evaluation Type: Evaluation A (Pre-1980)
  mutagenic call: active; positive
Species/Cell Type: Schizosaccharomyces pombe, Assay Type: Reverse gene mutation, Assay Code: YEZ+, Evaluation Type: Evaluation A (Pre-1980)
  mutagenic call: active; positive

## CC(C)Cc1ccc(C(C)C(=O)O)cc1 (stereo not given)
Species/Cell Type: Human lymphocytes, Assay Type: Sister-chromatid exchange (SCE) in vivo, Assay Code: SCY+, Evaluation Type: Evaluation B (Post-1980)
  mutagenic call: active; positive

## CCN(CC)C(=O)/C(Cl)=C(\C)OP(=O)(OC)OC
Species/Cell Type: Hordeum vulgare (barley), Assay Type: Chromosome aberrations, Assay Code: HOC+D, Dose Response: With dose response, Evaluation Type: Evaluation A (Pre-1980)
  mutagenic call: active; positive
[6]
  mutagenic call: active; positive
[7]
  mutagenic call: active; positive

## CCCCOc1ccc(CC(=O)NOS(=O)(=O)O)cc1
Species/Cell Type: Nonhuman, Assay Type: Sister-chromatid exchange (SCE) in vitro, Assay Code: SC2+, Evaluation Type: Evaluation B (Post-1980)
  mutagenic call: active; positive

## Cc1ccc2ccc3c4c(ccc3c2c1)C(=O)CC4
[5]
  mutagenic call: no conclusion

## CC(C)C(O)(C(=O)OCC1=CCN2CC[C@H](O)[C@H]12)[C@H](C)O (stereo not given in full)
[1]
  mutagenic call: active; positive

## CN[C@H]1CCc2cc(OC)c(OC)c(OC)c2-c2ccc(OC)c(=O)cc21
Species/Cell Type: Drosophila melanogaster, Assay Type: Aneuploidy, sex chromosome gain, chromosome aberrations, Assay Code: DAG+F, Evaluation Type: Evaluation A (Pre-1980)
  mutagenic call: active; positive
Species/Cell Type: Drosophila melanogaster, Assay Type: Aneuploidy, whole sex chromosome loss, chromosome aberrations, Assay Code: DAC+F, Evaluation Type: Evaluation A (Pre-1980)
  mutagenic call: active; positive
Species/Cell Type: Human lymphocytes, Assay Type: Sister-chromatid exchange (SCE) in vitro, Assay Code: SCLT, Evaluation Type: Evaluation B (Post-1980)
  mutagenic call: no conclusion
Species/Cell Type: Human, Assay Type: Sister-chromatid exchange (SCE) in vitro, Assay Code: SC1T, Evaluation Type: Evaluation B (Post-1980)
  mutagenic call: no conclusion
Species/Cell Type: Mammalian polychromatic erythrocytes, Assay Type: Micronucleus test, chromosome aberrations, Assay Code: MNT+, Evaluation Type: Evaluation A (Pre-1980)
  mutagenic call: active; positive
Species/Cell Type: Nonhuman, Assay Type: Sister-chromatid exchange (SCE) in vitro, Assay Code: SC2T, Evaluation Type: Evaluation B (Post-1980)
  mutagenic call: no conclusion

## C=CCOc1nc2c(c(=O)n(C)c(=O)n2C)n1C
Species/Cell Type: Allium cepa, Assay Type: Chromosome aberrations, Assay Code: ALC+D, Dose Response: With dose response, Evaluation Type: Evaluation A (Pre-1980)
  mutagenic call: active; positive

## CC1C(C)N(N=O)C(C)C(C)N1N=O (stereo not given)
[5]
  mutagenic call: no conclusion

## CN(C)Cc1cc(Br)ccc1OCC(=O)NN
[8]
  mutagenic call: no conclusion

## O=NN1CCC(c2ccccc2)CC1
Species/Cell Type: Salmonella typhimurium (one or more of the five standard strains: TA98, TA100, TA1535, TA1537, and TA1538), Assay Type: Histidine reverse gene mutation, Ames assay, Assay Code: SAL+*, Activation: With metabolic activation, Evaluation Type: Evaluation A (Pre-1980)
  mutagenic call: active; positive

## CNC=O
Species/Cell Type: Escherichia coli WP2, Assay Type: Tryptophan reverse gene mutation, Assay Code: WP2-, Evaluation Type: Evaluation A (Pre-1980)
  mutagenic call: inactive; negative

## O=S(O)CO
Species/Cell Type: Drosophila melanogaster, Sex: Male, Assay Type: Heritable translocation test, chromosome aberrations, Assay Code: DHTT, Evaluation Type: Evaluation A (Pre-1980)
  mutagenic call: no conclusion

## Cl
Species/Cell Type: Bacillus subtilis (H17 vs M45), Assay Type: Rec-assay, spot test, DNA effects (bacterial DNA repair), Assay Code: REW+, Evaluation Type: Evaluation A (Pre-1980)
  mutagenic call: active; positive
Species/Cell Type: Bacillus subtilis (H17 vs M45), Assay Type: Rec-assay, spot test, DNA effects (bacterial DNA repair), Assay Code: REW-, Evaluation Type: Evaluation A (Pre-1980)
  mutagenic call: inactive; negative
Species/Cell Type: Syrian hamster embryo (SA7/SHE) cells, Assay Type: Cell transformation, viral enhanced, Assay Code: CT7-, Evaluation Type: Evaluation A (Pre-1980)
  mutagenic call: inactive; negative

## O=C(O)COc1cc(Cl)c(Cl)cc1Cl
Species/Cell Type: Drosophila melanogaster, Assay Type: Aneuploidy, sex chromosome gain, chromosome aberrations, Assay Code: DAG-M-F, Evaluation Type: Evaluation A (Pre-1980)
  mutagenic call: inactive; negative
Species/Cell Type: Drosophila melanogaster, Assay Type: Aneuploidy, whole sex chromosome loss, chromosome aberrations, Assay Code: DAC-M-F, Evaluation Type: Evaluation A (Pre-1980)
  mutagenic call: inactive; negative
[1]
  mutagenic call: active; positive
Species/Cell Type: Drosophila melanogaster, Assay Type: Sex-linked recessive lethal gene mutation, Assay Code: SRLT, Evaluation Type: Evaluation A (Pre-1980)
  mutagenic call: no conclusion
Species/Cell Type: Mammalian polychromatic erythrocytes, Assay Type: Micronucleus test, chromosome aberrations, Assay Code: MNTT, Evaluation Type: Evaluation A (Pre-1980)
  mutagenic call: no conclusion
Species/Cell Type: Nonhuman bone marrow, Assay Type: Chromosome aberrations, in vivo, Assay Code: CY#+D, Dose Response: With dose response, Evaluation Type: Evaluation A (Pre-1980)
  mutagenic call: active; positive
[4]
  mutagenic call: active; positive
Species/Cell Type: Salmonella typhimurium, Serratia marcesens, Assay Type: Forward and reverse gene mutation, host-mediated assay, Assay Code: HM2T, Evaluation Type: Evaluation A (Pre-1980)
  mutagenic call: no conclusion
[7]
  mutagenic call: active; positive

## O[C@@H]1C=Cc2c(cc3ccc4cccc5ccc2c3c45)[C@@H]1O
[5]
  mutagenic call: no conclusion

## CCCCN(CC(O)CC(=O)O)N=O (stereo not given)
[5]
  mutagenic call: no conclusion

## O=S(=O)(O)c1ccc2c(N=Nc3cccc4ccccc34)c(O)c(S(=O)(=O)O)cc2c1
[9]
  mutagenic call: no conclusion

## Cl/C=C(\Cl)C(Cl)Cl
Species/Cell Type: Nonhuman, Assay Type: Sister-chromatid exchange (SCE) in vitro, Assay Code: SC2+D, Dose Response: With dose response, Evaluation Type: Evaluation B (Post-1980)
  mutagenic call: active; positive

## COc1ccc(C)cc1N
[3]
  call: active; positive

## CCC(C)c1ccccc1OC(=O)N(C)N=O (stereo not given)
Species/Cell Type: Bacillus subtilis (H17 vs M45T), Assay Type: Rec-assay, spot test, DNA effects (bacterial DNA repair), Assay Code: REX+, Evaluation Type: Evaluation A (Pre-1980)
  mutagenic call: active; positive
Species/Cell Type: Escherichia coli WP2, Assay Type: Tryptophan reverse gene mutation, Assay Code: WP2+, Evaluation Type: Evaluation A (Pre-1980)
  mutagenic call: active; positive

## O=C(Cn1ccnc1[N+](=O)[O-])NCc1ccccc1
[6]
  mutagenic call: active; positive

## CNC(=O)Nc1nc2ccccc2s1
Species/Cell Type: Saccharomyces cerevisiae, Assay Type: Mitotic recombination or gene conversion, Assay Code: YEC-, Evaluation Type: Evaluation A (Pre-1980)
  mutagenic call: inactive; negative

## NNC(=O)COc1ccc(Br)cc1CN1CCOCC1
[8]
  mutagenic call: no conclusion

## COc1cc2c(c3oc4cccc(O)c4c(=O)c13)[C@@H]1C=CO[C@@H]1O2
[9]
  mutagenic call: no conclusion
Species/Cell Type: Human diploid fibroblasts, Assay Type: Unscheduled DNA synthesis (UDS) in vitro, DNA effects, Assay Code: UDH+*, Activation: With metabolic activation, Evaluation Type: Evaluation A (Pre-1980)
  mutagenic call: active; positive
Species/Cell Type: Neurospora crassa, Assay Type: Forward gene mutation, Assay Code: NEF+, Evaluation Type: Evaluation A (Pre-1980)
  mutagenic call: active; positive
[2]
  mutagenic call: active; positive
[3]
  call: active; positive
Species/Cell Type: Nonhuman, Assay Type: Sister-chromatid exchange (SCE) in vivo, Assay Code: SC3+D, Dose Response: With dose response, Evaluation Type: Evaluation B (Post-1980)
  mutagenic call: active; positive
Species/Cell Type: Saccharomyces cerevisiae, Assay Type: Mitotic recombination or gene conversion, Assay Code: YEH+*, Activation: With metabolic activation, Evaluation Type: Evaluation A (Pre-1980)
  mutagenic call: active; positive
Species/Cell Type: Salmonella typhimurium (one or more of the five standard strains: TA98, TA100, TA1535, TA1537, and TA1538), Assay Type: Histidine reverse gene mutation, Ames assay, Assay Code: SAL+, Evaluation Type: Evaluation A (Pre-1980)
  mutagenic call: active; positive

Source: PubChem BioAssay AID1259408 (Genetic Toxicology Data Bank (GENE-TOX), 2018)
